From PubChem BioAssay (NCI)
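Five compound concentrations were applied to cells in 96-well plates for 48 hours; endpoints were derived by simple linear interpolation of the resulting dose-response curve. Here, GI50 denotes the concentration required for 50% inhibition of growth. TGI: total growth inhibition.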

What was measured:
Assay in all cases: NCI-60 cell line screen, 48 h
786-0 renal = system: 786-0 renal
A498 renal = system: A498 renal
A549 NSCLC = system: A549 NSCLC
ACHN renal = system: ACHN renal
BT-549 breast = system: BT-549 breast
CAKI-1 renal = system: CAKI-1 renal
CCRF-CEM leukemia = system: CCRF-CEM leukemia
COLO 205 colon = system: COLO 205 colon
DU-145 prostate = system: DU-145 prostate
EKVX NSCLC = system: EKVX NSCLC
HCC-2998 colon = system: HCC-2998 colon
HCT-116 colon = system: HCT-116 colon
HCT-15 colon = system: HCT-15 colon
HL-60(TB) leukemia = system: HL-60(TB) leukemia
HOP-62 NSCLC = system: HOP-62 NSCLC
HOP-92 NSCLC = system: HOP-92 NSCLC
HS 578T breast = system: HS 578T breast
HT29 colon = system: HT29 colon
IGROV1 ovarian = system: IGROV1 ovarian
K-562 leukemia = system: K-562 leukemia
KM12 colon = system: KM12 colon
LOX IMVI melanoma = system: LOX IMVI melanoma
M14 melanoma = system: M14 melanoma
MALME-3M melanoma = system: MALME-3M melanoma
MCF7 breast = system: MCF7 breast
MDA-MB-231 breast = system: MDA-MB-231 breast
MDA-MB-435 = system: MDA-MB-435
MDA-MB-468 breast = system: MDA-MB-468 breast
MOLT-4 leukemia = system: MOLT-4 leukemia
NCI-H226 lung = system: NCI-H226 lung
NCI-H23 lung = system: NCI-H23 lung
NCI-H460 lung = system: NCI-H460 lung
NCI-H522 lung = system: NCI-H522 lung
NCI/ADR-RES ovarian = system: NCI/ADR-RES ovarian
OVCAR-3 ovarian = system: OVCAR-3 ovarian
OVCAR-4 ovarian = system: OVCAR-4 ovarian
OVCAR-5 ovarian = system: OVCAR-5 ovarian
OVCAR-8 ovarian = system: OVCAR-8 ovarian
PC-3 prostate = system: PC-3 prostate
RPMI-8226 leukemia = system: RPMI-8226 leukemia
RXF 393 renal = system: RXF 393 renal
SF-268 CNS = system: SF-268 CNS
SF-295 CNS = system: SF-295 CNS
SF-539 CNS = system: SF-539 CNS
SK-MEL-2 melanoma = system: SK-MEL-2 melanoma
SK-MEL-28 melanoma = system: SK-MEL-28 melanoma
SK-MEL-5 melanoma = system: SK-MEL-5 melanoma
SK-OV-3 ovarian = system: SK-OV-3 ovarian
SN12C renal = system: SN12C renal
SNB-19 CNS = system: SNB-19 CNS
SNB-75 CNS = system: SNB-75 CNS
SW-620 colon = system: SW-620 colon
T-47D breast = system: T-47D breast
TK-10 renal = system: TK-10 renal
U251 CNS = system: U251 CNS
UACC-257 melanoma = system: UACC-257 melanoma
UACC-62 melanoma = system: UACC-62 melanoma
UO-31 renal = system: UO-31 renal

## Brc1ccc(N/N=C/c2c[nH]c3ccc(Br)cc23)nc1
786-0 renal
  GI50: 2.5 µM
  TGI: 8.24 µM
A498 renal
  GI50: 4.03 µM
  TGI: 13.3 µM
A549 NSCLC
  GI50: 3.26 µM
  TGI: 12.7 µM
ACHN renal
  GI50: 2.66 µM
  TGI: 10.5 µM
BT-549 breast
  GI50: 0.259 µM
  TGI: 5.39 µM
CAKI-1 renal
  GI50: 1.6 µM
  TGI: 9.87 µM
CCRF-CEM leukemia
  GI50: 1.27 µM
  TGI: > 100 µM
COLO 205 colon
  GI50: 2.07 µM
  TGI: 5 µM
DU-145 prostate
  GI50: 4.55 µM
  TGI: 16 µM
EKVX NSCLC
  GI50: 1.74 µM
  TGI: 10.9 µM
HCC-2998 colon
  GI50: 1.74 µM
  TGI: 3.55 µM
HCT-116 colon
  GI50: 2.68 µM
  TGI: 10.6 µM
HCT-15 colon
  GI50: 1.8 µM
  TGI: 4.25 µM
HL-60(TB) leukemia
  GI50: 1.7 µM
  TGI: 18.7 µM
HOP-62 NSCLC
  GI50: 3.14 µM
  TGI: 13 µM
HOP-92 NSCLC
  GI50: 1.51 µM
  TGI: 4.27 µM
HS 578T breast
  GI50: 2.13 µM
  TGI: 8.29 µM
HT29 colon
  GI50: 2.39 µM
  TGI: 5.32 µM
IGROV1 ovarian
  GI50: 0.251 µM
  TGI: 1.89 µM
K-562 leukemia
  GI50: 2.73 µM
  TGI: > 100 µM
KM12 colon
  GI50: 1.67 µM
  TGI: 5.88 µM
LOX IMVI melanoma
  GI50: 1.11 µM
  TGI: 2.49 µM
M14 melanoma
  GI50: 2.03 µM
  TGI: 5.31 µM
MALME-3M melanoma
  GI50: 3.26 µM
  TGI: 15.3 µM
MCF7 breast
  GI50: 1.59 µM
  TGI: 7.85 µM
MDA-MB-231 breast
  GI50: 1.44 µM
  TGI: 3.64 µM
MDA-MB-435
  GI50: 3.45 µM
  TGI: 14.1 µM
MDA-MB-468 breast
  GI50: 1.61 µM
  TGI: 4.2 µM
MOLT-4 leukemia
  GI50: 0.644 µM
  TGI: 18.5 µM
NCI-H226 lung
  GI50: 0.674 µM
  TGI: 10.3 µM
NCI-H23 lung
  GI50: 2.14 µM
  TGI: 8.21 µM
NCI-H460 lung
  GI50: 2.7 µM
  TGI: 8.64 µM
NCI-H522 lung
  GI50: 1.6 µM
  TGI: 5.54 µM
NCI/ADR-RES ovarian
  GI50: 2.79 µM
  TGI: 12.4 µM
OVCAR-3 ovarian
  GI50: 2.69 µM
  TGI: 9.13 µM
OVCAR-4 ovarian
  GI50: 4.07 µM
  TGI: 17.8 µM
OVCAR-5 ovarian
  GI50: 2.32 µM
  TGI: 9.51 µM
OVCAR-8 ovarian
  GI50: 2.96 µM
  TGI: 17 µM
PC-3 prostate
  GI50: 0.851 µM
  TGI: 10.1 µM
RPMI-8226 leukemia
  GI50: 1.47 µM
  TGI: 8.12 µM
RXF 393 renal
  GI50: 1.85 µM
  TGI: 5.64 µM
SF-268 CNS
  GI50: 1.84 µM
  TGI: 13.9 µM
SF-295 CNS
  GI50: 1.74 µM
  TGI: 3.56 µM
SF-539 CNS
  GI50: 0.795 µM
  TGI: 8.06 µM
SK-MEL-2 melanoma
  GI50: 2.92 µM
  TGI: 11.9 µM
SK-MEL-28 melanoma
  GI50: 3.58 µM
  TGI: 13.2 µM
SK-MEL-5 melanoma
  GI50: 2.56 µM
  TGI: 8.54 µM
SK-OV-3 ovarian
  GI50: 2.71 µM
  TGI: 13.7 µM
SN12C renal
  GI50: 1.05 µM
  TGI: 9.73 µM
SNB-19 CNS
  GI50: 3.09 µM
  TGI: 12.4 µM
SNB-75 CNS
  GI50: 0.568 µM
  TGI: 6.01 µM
SW-620 colon
  GI50: 2.85 µM
  TGI: 11.7 µM
T-47D breast
  GI50: 1.97 µM
  TGI: 12 µM
TK-10 renal
  GI50: 5.85 µM
  TGI: 15.1 µM
U251 CNS
  GI50: 2.54 µM
  TGI: 10.5 µM
UACC-257 melanoma
  GI50: 3.47 µM
  TGI: 15.3 µM
UACC-62 melanoma
  GI50: 0.862 µM
  TGI: 10.9 µM
UO-31 renal
  GI50: 0.532 µM
  TGI: 7.55 µM
